| SMILES | melting point |
| --- | --- |
| Cc1cc(F)ccc1[C@H]1C[C@@H](N(C)C)CCN1C(=O)N(C)Cc1cc(C(F)(F)F)cc(C(F)(F)F)c1.Cl | 147 to 150 °C |
| Cc1cc(F)ccc1[C@H]1C[C@H](NCC(N)=O)CCN1C(=O)N(C)Cc1cc(C(F)(F)F)cc(C(F)(F)F)c1.Cl | 130 to 131 °C |
| Cc1cc(F)ccc1[C@H]1C[C@@H](NCC(N)=O)CCN1C(=O)N(C)Cc1cc(C(F)(F)F)cc(C(F)(F)F)c1.Cl | 100 to 101 °C |

Now from value to compound:

| melting point | SMILES |
| --- | --- |
| 180 to 183 °C | Cc1cc(F)ccc1[C@H]1C[C@H](N(C)C)CCN1C(=O)N(C)Cc1cc(C(F)(F)F)cc(C(F)(F)F)c1.Cl |
| 145 to 146 °C | Cc1cc(F)ccc1[C@H]1C[C@H](NCCF)CCN1C(=O)N(C)Cc1cc(C(F)(F)F)cc(C(F)(F)F)c1.Cl |

— patent US7482365B2, “Piperidylcarboxamide derivatives and their use in the treatment of tachykinin-mediated diseases” (Glaxo Group Limited, priority 2002, dated 2009)
